Experiment [1] is filed under the species Oryctolagus cuniculus. Briefly: Inhibition of rabbit MKK1 expressed in Escherichia coli at 50 uM; values are per cent of control.
Experiment [2] addresses T1, Ribosomal protein S6 kinase beta-1 (Homo sapiens, UniProt P23443). In words: Inhibition of His-tagged human S6K1 expressed in Escherichia coli at 50 uM; values are per cent of control.
Experiment [3] addresses Mitogen-activated protein kinase 14 (Homo sapiens) (UniProt Q16539). In words: Inhibition of His-tagged human SAPK2a/p38 expressed in Escherichia coli at 50 uM; values are per cent of control.
Experiment [4] is filed under the species Rattus norvegicus. Briefly: Inhibition of rat liver AMPK at 50 uM; values are per cent of control.
Experiment [5] deals with Casein kinase II (Homo sapiens) (UniProt P67870+P68400+P19784). In words: Inhibition of His-tagged human CK2 expressed in Sf9 cells at 50 uM; values are per cent of control.
In experiment [6] the target is T2, Ribosomal protein S6 kinase alpha-5 (Homo sapiens, UniProt O75582). In words: Inhibition of His-tagged human MSK1 expressed in Sf9 cells at 50 uM; values are per cent of control.
Target sequence in this assay (O75582 whole entry, looked up): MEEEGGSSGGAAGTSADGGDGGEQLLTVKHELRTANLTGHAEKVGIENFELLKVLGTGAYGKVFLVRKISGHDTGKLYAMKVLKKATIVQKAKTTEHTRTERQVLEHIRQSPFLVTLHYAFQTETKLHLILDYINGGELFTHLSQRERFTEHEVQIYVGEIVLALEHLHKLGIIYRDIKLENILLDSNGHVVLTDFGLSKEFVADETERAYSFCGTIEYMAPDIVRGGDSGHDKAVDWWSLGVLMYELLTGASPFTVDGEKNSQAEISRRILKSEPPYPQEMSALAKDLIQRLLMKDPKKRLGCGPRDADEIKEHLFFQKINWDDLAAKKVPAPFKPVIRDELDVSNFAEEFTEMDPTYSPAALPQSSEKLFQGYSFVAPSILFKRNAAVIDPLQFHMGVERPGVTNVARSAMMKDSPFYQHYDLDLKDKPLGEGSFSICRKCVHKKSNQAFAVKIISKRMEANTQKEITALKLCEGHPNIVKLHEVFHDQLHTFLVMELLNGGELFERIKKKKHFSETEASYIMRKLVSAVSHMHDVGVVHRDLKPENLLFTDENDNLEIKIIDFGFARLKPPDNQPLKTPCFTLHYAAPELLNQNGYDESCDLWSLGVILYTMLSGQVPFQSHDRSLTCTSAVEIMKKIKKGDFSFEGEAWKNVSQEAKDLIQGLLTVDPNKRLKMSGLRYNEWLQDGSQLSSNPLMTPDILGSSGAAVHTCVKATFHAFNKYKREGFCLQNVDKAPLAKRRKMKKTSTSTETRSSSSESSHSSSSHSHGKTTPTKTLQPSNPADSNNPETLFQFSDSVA
Experiment [7] addresses RAC-alpha serine/threonine-protein kinase (Homo sapiens) (UniProt P31749). Briefly: Inhibition of human PKBalpha expressed in SF9 cells at 50 uM; values are per cent of control.
Experiment [8] concerns the target [Pyruvate dehydrogenase (acetyl-transferring)] kinase isozyme 1, mitochondrial (Homo sapiens) (UniProt Q15118). Briefly: Inhibition of His-tagged human PDK1 expressed in Sf21 cells at 50 uM. Particulars: values are per cent of control.
Experiment [9] deals with T3, Serine/threonine-protein kinase Chk1 (Homo sapiens) (UniProt O14757).
T3 sequence (whole entry): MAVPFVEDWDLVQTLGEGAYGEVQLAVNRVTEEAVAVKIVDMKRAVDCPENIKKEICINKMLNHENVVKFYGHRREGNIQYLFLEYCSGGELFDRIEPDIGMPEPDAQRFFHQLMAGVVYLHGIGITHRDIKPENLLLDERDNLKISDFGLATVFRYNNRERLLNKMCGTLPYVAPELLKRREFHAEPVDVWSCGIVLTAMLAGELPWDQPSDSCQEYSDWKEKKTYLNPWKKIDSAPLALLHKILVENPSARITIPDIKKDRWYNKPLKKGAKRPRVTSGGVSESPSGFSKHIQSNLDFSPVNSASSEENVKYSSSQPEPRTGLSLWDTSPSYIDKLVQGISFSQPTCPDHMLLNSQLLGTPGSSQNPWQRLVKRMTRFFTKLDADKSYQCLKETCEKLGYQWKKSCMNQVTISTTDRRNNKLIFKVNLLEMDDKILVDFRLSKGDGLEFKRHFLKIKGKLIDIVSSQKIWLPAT
Briefly: Inhibition of His-tagged human CHK1 expressed in Escherichia coli at 50 uM; values are per cent of control.

Experiment [10] deals with T4, Protein kinase C alpha type (Homo sapiens, UniProt P17252). Briefly: Inhibition of His-tagged human PKCalpha expressed in Escherichia coli at 50 uM; values are per cent of control.
The target of experiment [11] is Glycogen synthase kinase-3 beta (Homo sapiens, UniProt P49841). Briefly: Inhibition of His-tagged human GSK3b expressed in Sf21 cells at 50 uM; values are per cent of control.
The species entered for experiment [12] is Oryctolagus cuniculus. In words: Inhibition of PHK from rabbit skeletal muscle at 50 uM; values are per cent of control. Particulars: Muscle tissue.
For experiment [13], the target named is Rho-associated protein kinase 2 (Rattus norvegicus) (UniProt Q62868). In words: Inhibition of rat ROCK2 expressed in Sf9 cells at 50 uM. Particulars: values are per cent of control.
Rho-associated protein kinase 2 (Rattus norvegicus), sequence (Q62868 whole entry, looked up): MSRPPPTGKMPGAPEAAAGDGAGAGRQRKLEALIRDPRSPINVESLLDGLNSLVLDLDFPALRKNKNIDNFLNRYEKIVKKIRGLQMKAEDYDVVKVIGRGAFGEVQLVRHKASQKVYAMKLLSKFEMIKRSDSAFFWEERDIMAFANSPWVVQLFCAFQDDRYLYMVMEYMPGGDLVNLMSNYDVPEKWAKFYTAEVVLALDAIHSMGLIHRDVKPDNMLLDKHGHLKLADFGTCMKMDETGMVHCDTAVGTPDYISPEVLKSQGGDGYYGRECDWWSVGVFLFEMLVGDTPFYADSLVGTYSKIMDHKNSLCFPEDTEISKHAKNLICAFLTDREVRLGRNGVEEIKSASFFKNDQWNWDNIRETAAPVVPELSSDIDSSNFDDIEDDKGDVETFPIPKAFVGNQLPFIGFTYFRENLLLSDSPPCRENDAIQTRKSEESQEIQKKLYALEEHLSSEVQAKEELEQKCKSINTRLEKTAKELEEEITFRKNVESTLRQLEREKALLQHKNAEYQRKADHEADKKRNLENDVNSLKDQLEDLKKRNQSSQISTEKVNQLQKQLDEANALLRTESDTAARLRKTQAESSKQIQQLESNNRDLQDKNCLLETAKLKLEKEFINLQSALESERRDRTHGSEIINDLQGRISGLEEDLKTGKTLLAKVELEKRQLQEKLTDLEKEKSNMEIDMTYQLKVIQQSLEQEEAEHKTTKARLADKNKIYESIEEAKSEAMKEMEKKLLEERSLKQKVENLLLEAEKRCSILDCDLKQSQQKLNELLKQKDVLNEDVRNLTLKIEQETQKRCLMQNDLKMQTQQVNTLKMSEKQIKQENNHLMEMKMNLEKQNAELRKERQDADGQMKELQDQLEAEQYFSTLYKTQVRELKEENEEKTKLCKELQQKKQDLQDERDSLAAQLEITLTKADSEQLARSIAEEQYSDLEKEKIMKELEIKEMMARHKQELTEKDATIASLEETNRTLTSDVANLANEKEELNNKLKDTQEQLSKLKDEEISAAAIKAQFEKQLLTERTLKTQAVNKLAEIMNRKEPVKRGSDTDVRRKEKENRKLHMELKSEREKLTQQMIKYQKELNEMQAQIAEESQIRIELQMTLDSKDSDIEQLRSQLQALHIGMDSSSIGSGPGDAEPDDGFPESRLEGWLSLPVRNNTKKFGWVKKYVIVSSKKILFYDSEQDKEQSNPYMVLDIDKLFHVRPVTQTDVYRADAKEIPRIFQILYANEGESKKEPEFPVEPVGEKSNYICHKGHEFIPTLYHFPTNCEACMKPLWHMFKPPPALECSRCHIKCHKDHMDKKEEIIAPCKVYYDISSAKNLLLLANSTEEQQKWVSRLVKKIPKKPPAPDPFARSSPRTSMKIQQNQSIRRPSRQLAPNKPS
Experiment [14] deals with T5, Mitogen-activated protein kinase 12 (Homo sapiens) (UniProt P53778).
T5 sequence (whole entry): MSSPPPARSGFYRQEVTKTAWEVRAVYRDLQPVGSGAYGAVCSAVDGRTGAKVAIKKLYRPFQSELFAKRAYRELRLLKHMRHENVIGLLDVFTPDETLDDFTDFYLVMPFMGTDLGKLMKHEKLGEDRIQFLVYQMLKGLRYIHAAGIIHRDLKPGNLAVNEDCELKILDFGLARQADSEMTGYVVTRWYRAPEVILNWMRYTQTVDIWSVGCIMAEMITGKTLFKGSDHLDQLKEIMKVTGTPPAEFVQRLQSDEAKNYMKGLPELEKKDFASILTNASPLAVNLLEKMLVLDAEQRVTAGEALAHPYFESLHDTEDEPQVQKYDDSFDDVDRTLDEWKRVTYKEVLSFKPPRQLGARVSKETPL
Briefly: Inhibition of His-tagged human SAPK3/p38gamma expressed in Escherichia coli at 50 uM; values are per cent of control.

The species entered for experiment [15] is Oryctolagus cuniculus. Briefly: Inhibition of MAPKAPK1b from rabbit skeletal muscle at 50 uM; values are per cent of control. Particulars: Muscle tissue.
Experiment [16] deals with Mitogen-activated protein kinase 8 (Homo sapiens) (UniProt P45983). Briefly: Inhibition of His-tagged human JNK1a1/SAPK1c expressed in Escherichia coli at 50 uM; values are per cent of control.
Experiment [17] concerns the target Mitogen-activated protein kinase 11 (Homo sapiens) (UniProt Q15759). Briefly: Inhibition of His-tagged human SAPK2b/p38b2 expressed in Escherichia coli at 50 uM; values are per cent of control.
Experiment [18] has as its target T6, MAP kinase-activated protein kinase 2 (Homo sapiens, UniProt P49137). Briefly: Inhibition of His-tagged human MAPKAPK2 expressed in Escherichia coli at 50 uM; values are per cent of control.
Experiment [19] concerns the target T7, Mitogen-activated protein kinase 13 (Homo sapiens) (UniProt O15264).
T7 sequence (whole entry): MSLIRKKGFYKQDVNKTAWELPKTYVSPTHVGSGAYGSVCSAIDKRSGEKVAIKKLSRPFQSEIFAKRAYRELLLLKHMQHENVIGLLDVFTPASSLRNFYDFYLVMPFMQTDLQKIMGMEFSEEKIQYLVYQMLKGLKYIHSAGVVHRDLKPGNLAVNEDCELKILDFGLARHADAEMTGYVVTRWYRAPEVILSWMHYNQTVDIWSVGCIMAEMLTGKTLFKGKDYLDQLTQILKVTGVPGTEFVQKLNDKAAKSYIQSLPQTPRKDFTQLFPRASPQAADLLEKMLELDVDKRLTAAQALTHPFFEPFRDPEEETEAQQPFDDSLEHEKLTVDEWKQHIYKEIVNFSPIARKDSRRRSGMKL
In words: Inhibition of His-tagged human SAPK4/p38delta expressed in Escherichia coli at 50 uM; values are per cent of control.

The target in experiment [20] is Mitogen-activated protein kinase 1 (Homo sapiens) (UniProt P28482). Briefly: Inhibition of His-tagged human MAPK2/ERK2 expressed in Escherichia coli at 50 uM; values are per cent of control.
Mitogen-activated protein kinase 1 (Homo sapiens), sequence (P28482 whole entry): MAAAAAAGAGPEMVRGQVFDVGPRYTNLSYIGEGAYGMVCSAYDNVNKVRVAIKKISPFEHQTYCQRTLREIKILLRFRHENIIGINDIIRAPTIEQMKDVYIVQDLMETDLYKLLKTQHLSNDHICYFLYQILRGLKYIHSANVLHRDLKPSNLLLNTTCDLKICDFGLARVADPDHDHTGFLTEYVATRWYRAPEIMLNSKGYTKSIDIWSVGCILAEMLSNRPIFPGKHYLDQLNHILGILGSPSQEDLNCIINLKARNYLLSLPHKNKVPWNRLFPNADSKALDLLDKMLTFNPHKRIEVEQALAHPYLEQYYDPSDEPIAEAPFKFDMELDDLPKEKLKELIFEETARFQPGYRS
The species entered for experiment [21] is Bos taurus. Briefly: Inhibition of bovine heart PKA at 50 uM; values are per cent of control.
The target in experiment [22] is T8, Serine/threonine-protein kinase Sgk1 (Homo sapiens) (UniProt O00141).
T8 sequence (whole entry): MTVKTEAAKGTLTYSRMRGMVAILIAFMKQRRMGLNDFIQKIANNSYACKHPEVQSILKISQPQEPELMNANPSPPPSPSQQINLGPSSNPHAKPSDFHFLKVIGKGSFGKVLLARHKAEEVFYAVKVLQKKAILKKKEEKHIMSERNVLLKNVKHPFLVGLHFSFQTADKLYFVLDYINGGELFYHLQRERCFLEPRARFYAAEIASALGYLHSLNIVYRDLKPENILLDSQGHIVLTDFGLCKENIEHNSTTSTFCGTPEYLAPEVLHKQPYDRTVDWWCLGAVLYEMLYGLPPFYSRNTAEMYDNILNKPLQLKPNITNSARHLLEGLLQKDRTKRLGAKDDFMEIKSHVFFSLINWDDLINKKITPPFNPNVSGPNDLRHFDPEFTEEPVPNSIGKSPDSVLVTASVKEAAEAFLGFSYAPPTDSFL
In words: Inhibition of His-tagged human SGK expressed in Sf9 cells at 50 uM; values are per cent of control.

The species entered for experiment [23] is Oryctolagus cuniculus. Particulars: Muscle tissue, at 10 µM.
The target in experiment [24] is Dual specificity mitogen-activated protein kinase kinase 3 (Homo sapiens) (UniProt P46734). Particulars: values are per cent of control, at 10 µM.
Dual specificity mitogen-activated protein kinase kinase 3 (Homo sapiens), sequence (P46734 whole entry): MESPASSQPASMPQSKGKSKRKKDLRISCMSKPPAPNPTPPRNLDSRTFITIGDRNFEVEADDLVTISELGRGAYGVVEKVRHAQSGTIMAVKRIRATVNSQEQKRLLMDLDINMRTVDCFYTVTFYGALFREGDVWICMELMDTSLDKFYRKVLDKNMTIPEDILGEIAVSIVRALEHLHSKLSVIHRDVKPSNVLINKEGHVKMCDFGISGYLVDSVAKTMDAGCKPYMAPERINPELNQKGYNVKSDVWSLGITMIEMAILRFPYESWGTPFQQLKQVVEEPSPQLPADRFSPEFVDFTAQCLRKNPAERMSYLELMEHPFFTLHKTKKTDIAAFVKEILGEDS
Experiment [25] concerns the target RAC-alpha serine/threonine-protein kinase (Homo sapiens) (UniProt P31749). Particulars: Sf9, at 10 µM.
Experiment [26] has as its target Mitogen-activated protein kinase 14 (Homo sapiens) (UniProt Q16539). Particulars: at 10 µM.
The target in experiment [27] is Mitogen-activated protein kinase 1 (Homo sapiens) (UniProt P28482). Particulars: at 10 µM.
For experiment [28], the species on record is Rattus norvegicus. Particulars: at 10 µM.
For experiment [29], the target named is T2, Ribosomal protein S6 kinase alpha-5. In words: Inhibition of His-tagged human MSK1 expressed in Sf9 cells.
Target sequence in this assay (O75582 whole entry): as the sequence (O75582 whole entry, looked up) above
For experiment [30], the target named is T9, MAP kinase-activated protein kinase 5 (Homo sapiens) (UniProt Q8IW41).
T9 sequence (whole entry): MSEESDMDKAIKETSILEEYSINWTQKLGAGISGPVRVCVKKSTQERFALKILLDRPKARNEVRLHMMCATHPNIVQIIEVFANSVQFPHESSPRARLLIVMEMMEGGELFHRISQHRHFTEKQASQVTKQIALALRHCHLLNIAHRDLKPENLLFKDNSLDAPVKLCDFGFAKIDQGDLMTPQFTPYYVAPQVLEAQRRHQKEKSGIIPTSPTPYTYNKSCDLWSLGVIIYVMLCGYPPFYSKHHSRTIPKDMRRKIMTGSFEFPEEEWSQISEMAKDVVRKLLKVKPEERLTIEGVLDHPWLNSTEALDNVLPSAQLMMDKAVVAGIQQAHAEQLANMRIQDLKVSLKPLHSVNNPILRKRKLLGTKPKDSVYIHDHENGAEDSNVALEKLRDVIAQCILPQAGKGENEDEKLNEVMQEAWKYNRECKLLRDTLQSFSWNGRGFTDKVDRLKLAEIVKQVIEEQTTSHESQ
Particulars: Sf9, at 10 µM.

The species named for experiment [31] is Bos taurus. Particulars: at 10 µM.
In experiment [32] the target is Dual specificity mitogen-activated protein kinase kinase 6 (Homo sapiens) (UniProt P52564). Particulars: at 10 µM.
For experiment [33], the species on record is Oryctolagus cuniculus. Particulars: at 10 µM.
The species entered for experiment [34] is Oryctolagus cuniculus. Particulars: Muscle tissue, at 10 µM. The source holds these as a separate data set.
Experiment [35] concerns the target T3, Serine/threonine-protein kinase Chk1 (Homo sapiens). Particulars: at 10 µM.
In experiment [36] the target is T8, Serine/threonine-protein kinase Sgk1 (Homo sapiens). Particulars: Sf9, at 10 µM.
In experiment [37] the target is Tyrosine-protein kinase Lck (Homo sapiens) (UniProt P06239). Particulars: Sf9, at 10 µM.
Experiment [38] addresses T4, Protein kinase C alpha type. Particulars: at 10 µM.
In experiment [39] the target is Dual specificity mitogen-activated protein kinase kinase 4 (Homo sapiens) (UniProt P45985). Particulars: at 10 µM.
The target in experiment [40] is T6, MAP kinase-activated protein kinase 2. Particulars: at 10 µM.
The target of experiment [41] is Dual specificity mitogen-activated protein kinase kinase 7 (Homo sapiens) (UniProt O14733). Particulars: at 10 µM.
Experiment [42] addresses T2, Ribosomal protein S6 kinase alpha-5. Particulars: Sf9, at 10 µM.
Target sequence in this assay (O75582 whole entry, looked up): as the sequence (O75582 whole entry, looked up) above
Experiment [43] addresses Rho-associated protein kinase 2 (Rattus norvegicus) (UniProt Q62868). Particulars: Sf9, at 10 µM.
Experiment [44] has as its target T1, Ribosomal protein S6 kinase beta-1. Particulars: at 10 µM.

Mitogen-activated protein kinase 14 (Homo sapiens), sequence (Q16539 whole entry): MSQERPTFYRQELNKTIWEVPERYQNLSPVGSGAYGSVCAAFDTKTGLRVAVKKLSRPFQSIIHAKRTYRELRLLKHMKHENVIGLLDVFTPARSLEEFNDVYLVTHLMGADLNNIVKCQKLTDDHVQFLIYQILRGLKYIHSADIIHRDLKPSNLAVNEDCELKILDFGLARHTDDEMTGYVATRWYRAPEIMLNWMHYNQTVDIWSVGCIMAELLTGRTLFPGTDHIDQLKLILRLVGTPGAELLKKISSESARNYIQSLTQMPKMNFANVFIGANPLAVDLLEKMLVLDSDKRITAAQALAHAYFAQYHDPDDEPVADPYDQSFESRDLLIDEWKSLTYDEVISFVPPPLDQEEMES
RAC-alpha serine/threonine-protein kinase (Homo sapiens), sequence (P31749 whole entry): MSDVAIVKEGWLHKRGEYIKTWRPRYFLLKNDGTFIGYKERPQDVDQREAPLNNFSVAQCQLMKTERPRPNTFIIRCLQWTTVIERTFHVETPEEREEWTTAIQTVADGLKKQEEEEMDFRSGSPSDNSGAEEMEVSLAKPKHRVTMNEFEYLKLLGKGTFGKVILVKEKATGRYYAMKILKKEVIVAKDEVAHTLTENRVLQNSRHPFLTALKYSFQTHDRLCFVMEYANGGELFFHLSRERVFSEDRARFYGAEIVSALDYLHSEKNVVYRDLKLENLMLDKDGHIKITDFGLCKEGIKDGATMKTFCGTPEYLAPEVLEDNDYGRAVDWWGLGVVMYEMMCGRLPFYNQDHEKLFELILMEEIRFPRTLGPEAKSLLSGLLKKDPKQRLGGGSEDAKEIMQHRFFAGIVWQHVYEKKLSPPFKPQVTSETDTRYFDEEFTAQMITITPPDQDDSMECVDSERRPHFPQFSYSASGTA
T6 sequence (P49137 whole entry, looked up): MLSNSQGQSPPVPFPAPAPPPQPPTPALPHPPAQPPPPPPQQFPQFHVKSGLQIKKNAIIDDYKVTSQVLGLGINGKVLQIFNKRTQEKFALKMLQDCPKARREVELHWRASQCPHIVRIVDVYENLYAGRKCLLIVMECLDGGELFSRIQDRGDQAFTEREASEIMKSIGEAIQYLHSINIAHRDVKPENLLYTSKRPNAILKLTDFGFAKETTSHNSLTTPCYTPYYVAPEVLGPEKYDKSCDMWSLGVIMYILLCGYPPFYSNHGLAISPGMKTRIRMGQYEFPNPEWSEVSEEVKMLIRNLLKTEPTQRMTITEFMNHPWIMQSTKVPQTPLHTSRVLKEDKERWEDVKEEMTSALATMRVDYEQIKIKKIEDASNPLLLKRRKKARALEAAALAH
T1 sequence (P23443 whole entry, looked up): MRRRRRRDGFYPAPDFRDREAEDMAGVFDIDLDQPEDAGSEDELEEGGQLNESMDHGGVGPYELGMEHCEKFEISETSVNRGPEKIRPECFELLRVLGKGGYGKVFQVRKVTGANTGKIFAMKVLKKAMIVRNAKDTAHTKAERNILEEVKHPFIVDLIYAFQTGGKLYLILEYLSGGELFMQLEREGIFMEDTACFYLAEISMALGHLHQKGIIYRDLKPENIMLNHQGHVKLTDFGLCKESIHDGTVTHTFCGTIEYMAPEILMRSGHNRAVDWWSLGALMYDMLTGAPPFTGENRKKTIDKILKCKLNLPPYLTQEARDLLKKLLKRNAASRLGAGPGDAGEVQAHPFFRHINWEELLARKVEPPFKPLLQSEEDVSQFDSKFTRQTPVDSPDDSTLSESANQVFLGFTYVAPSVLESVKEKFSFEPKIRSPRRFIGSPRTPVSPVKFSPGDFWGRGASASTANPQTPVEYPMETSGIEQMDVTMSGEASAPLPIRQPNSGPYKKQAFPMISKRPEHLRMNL

Regarding `COc1cccc(-c2cc(=O)c3ccccc3o2)c1N`, the residual activity in the experiment filed under Oryctolagus cuniculus [1] was 89%; in experiment [2], 100%; in experiment [3], 85%; in the experiment listed under Rattus norvegicus [4], 97%; in [5] it was 87%; in experiment [6] it was 86%. Moreover, the residual activity came to 82% in experiment [7]; 86% in [8]; 99% in experiment [9]; 93% in [10]; 101% in [11]; 80% in experiment [13]. The residual activity in experiment [14] came out at 96%; in experiment [16] it was 111%; in experiment [17], 95%; in experiment [18], 95%; in experiment [19] it was 94%; in [20], 85%. Besides, the residual activity in the experiment listed under Bos taurus [21] was 106%; in experiment [22], 90%. The values for the level, % of control in the experiment listed under Oryctolagus cuniculus [12] and in the experiment listed under Oryctolagus cuniculus [15] were 87% and 93%, respectively.
Turning to `O=S(=O)(NCCNC/C=C/c1ccc(Br)cc1)c1cccc2cnccc12`, the level, % of control was determined as 16% in the experiment filed under Oryctolagus cuniculus [23] and 51% in the experiment filed under Oryctolagus cuniculus [34]. Moreover, the residual activity was determined as 95% in [24]; 17% in experiment [25]; 99% in experiment [26]; 87% in [27]; 19% in the experiment listed under Rattus norvegicus [28]; 81% in [30]. Further, the residual activity amounted to 2% in the experiment filed under Bos taurus [31]; 90% in the experiment listed under Oryctolagus cuniculus [33]; 21% in experiment [35]; 25% in experiment [36]; 76% in experiment [37]; 79% in experiment [38]. The residual activity in experiment [40] was 99%; in experiment [42], 3%; in experiment [43], 0%; in experiment [44], 0%. Moreover, in experiment [29], the IC50 is 120 nM. The figures for the inhibition in experiment [32], in experiment [39] and in experiment [41] were 86%, 80% and 91%, respectively.

Source of the values: ChEMBL document CHEMBL1240295, “Specificity and mechanism of action of some commonly used protein kinase inhibitors” (Biochem J, 2000).
